Counter-ions that a name gives are not always drawn.
Test system: dopaminergic neurons
Experimental: RNAs isolated from NSCs and neurons with and without drug treatments were hybridized to Illumina HumanRef-8 BeadChip (Illumina, Inc., San Diego, Calif., performed by Microarray core facility at the Burnham Institute for Medical Research). The Illumina array data were normalized by the quantile method, and then transformed log 2 ratio values for a zero mean for expression values of each gene across all samples. The statistical and bioinformatics analyses were conducted by using R and the bioconductor package (www.bioconductor.org). The gene set enrichment analysis was conducted using the GSEA software (www.broad.mit.edu/gsea).
The comparative results are then measured by a non-parametric, running sum statistic termed the enrichment score. The enrichment score significance is assessed by 1,000 permutation tests to compute the enrichment p-value.

[1] = enriched in treated DA neurons, Nom P-Val 0.910714
[2] = enriched in treated DA neurons, Nom P-Val 1
[3] = enriched in untreated DA neurons, NOM p-val 0
[4] = enriched in untreated DA neurons, NOM p-val 0.111111
[5] = enriched in untreated DA neurons, NOM p-val 0.166667
[6] = enriched in untreated DA neurons, NOM p-val 0.444444
[7] = enriched in untreated DA neurons, NOM p-val 0.818182
[8] = enriched in untreated DA neurons, NOM p-val 0.90625
[9] = enriched in untreated DA neurons, NOM p-val 0.955556
[10] = enriched in untreated DA neurons, NOM p-val 1

## CCCCc1oc2ccccc2c1C(=O)c1cc(I)c(OCCN(CC)CC)c(I)c1 [Amiodarone Hydrochloride]
Enriched in treated DA neurons, Nom P-Val 0.864865
  Nes: Transferase Activity Transferring Glycosyl Groups: 0.8297
Enriched in treated DA neurons, Nom P-Val 0.894737
  Nes: Cation Binding: 0.7825
[1]
  Nes: Calmodulin Binding: 0.6917
  Nes: Protein N Terminus Binding: 0.7167
Enriched in treated DA neurons, Nom P-Val 0.913044
  Nes: Guanyl Nucleotide Binding: 0.72
Enriched in treated DA neurons, Nom P-Val 0.924051
  Nes: Hydrolase Activity Acting On Ester Bonds: 0.7747
Enriched in treated DA neurons, Nom P-Val 0.942857
  Nes: Transcription Corepressor Activity: 0.6958
Enriched in treated DA neurons, Nom P-Val 0.944444
  Nes: Atpase Activity Coupled To Transmembrane Movement Of Ions: 0.5935
Enriched in treated DA neurons, Nom P-Val 0.963415
  Nes: Structural Molecule Activity: 0.7324
Enriched in treated DA neurons, Nom P-Val 0.968254
  Nes: Transferase Activity Transferring Alkyl Or Aryl Other Than Methyl Groups: 0.6284
Enriched in treated DA neurons, Nom P-Val 0.983871
  Nes: Actin Filament Binding: 0.3138
Enriched in treated DA neurons, Nom P-Val 0.984375
  Nes: Mrna Binding: 0.4087
Enriched in treated DA neurons, Nom P-Val 0.987013
  Nes: Transcription Factor Binding: 0.742
Enriched in treated DA neurons, Nom P-Val 0.9875
  Nes: Phosphoric Ester Hydrolase Activity: 0.6959
[2]
  Nes: Atpase Activity: 0.6528
  Nes: Rna Binding: 0.4406
  Nes: Translation Initiation Factor Activity: 0.3311
[3]
  NES: Gtpase Binding: −1.62
  NES: Hydrolase Activity Hydrolyzing O Glycosyl Compounds: −1.479
Enriched in untreated DA neurons, NOM p-val 0.02
  NES: Ras Gtpase Binding: −1.585
Enriched in untreated DA neurons, NOM p-val 0.027778
  NES: Cation Channel Activity: −1.394
Enriched in untreated DA neurons, NOM p-val 0.047619
  NES: Small Gtpase Binding: −1.4967
Enriched in untreated DA neurons, NOM p-val 0.051282
  NES: Gated Channel Activity: −1.491
Enriched in untreated DA neurons, NOM p-val 0.060606
  NES: Ion Channel Activity: −1.2
Enriched in untreated DA neurons, NOM p-val 0.08
  NES: Hydrolase Activity Acting On Glycosyl Bonds: −1.414
Enriched in untreated DA neurons, NOM p-val 0.081081
  NES: Nucleobase Nucleoside Nucleotide Kinase Activity: −1.368
Enriched in untreated DA neurons, NOM p-val 0.085714
  NES: Voltage Gated Channel Activity: −1.284
Enriched in untreated DA neurons, NOM p-val 0.1
  NES: Kinase Binding: −1.316
Enriched in untreated DA neurons, NOM p-val 0.105263
  NES: Exopeptidase Activity: −1.3223
[4]
  NES: Metal Ion Transmembrane Transporter Activity: −1.269
  NES: Potassium Channel Activity: −1.325
Enriched in untreated DA neurons, NOM p-val 0.129032
  NES: Substrate Specific Channel Activity: −1.221
Enriched in untreated DA neurons, NOM p-val 0.142857
  NES: Chromatin Binding: −1.239
Enriched in untreated DA neurons, NOM p-val 0.157895
  NES: Gtpase Activator Activity: −1.222
Enriched in untreated DA neurons, NOM p-val 0.162162
  NES: Phosphoprotein Phosphatase Activity: −1.15
[5]
  NES: Electron Carrier Activity: −1.204
  NES: Voltage Gated Cation Channel Activity: −1.174
Enriched in untreated DA neurons, NOM p-val 0.171429
  NES: Transition Metal Ion Binding: −1.098
Enriched in untreated DA neurons, NOM p-val 0.212121
  NES: Protein C Terminus Binding: −1.195
Enriched in untreated DA neurons, NOM p-val 0.216216
  NES: Helicase Activity: −1.187
Enriched in untreated DA neurons, NOM p-val 0.222222
  NES: Protein Complex Binding: −1.133
Enriched in untreated DA neurons, NOM p-val 0.233333
  NES: Enzyme Binding: −1.04
Enriched in untreated DA neurons, NOM p-val 0.243902
  NES: Ras Gtpase Activator Activity: −1.144
Enriched in untreated DA neurons, NOM p-val 0.25
  NES: S Adenosylmethionine Dependent Methyltransferase Activity: −1.2358
Enriched in untreated DA neurons, NOM p-val 0.263158
  NES: Ligand Gated Channel Activity: −1.236
Enriched in untreated DA neurons, NOM p-val 0.291667
  NES: Cation Transmembrane Transporter Activity: −1.08
Enriched in untreated DA neurons, NOM p-val 0.297297
  NES: Rho Gtpase Activator Activity: −1.16
Enriched in untreated DA neurons, NOM p-val 0.318182
  NES: Rna Dependent Atpase Activity: −1.11
Enriched in untreated DA neurons, NOM p-val 0.324324
  NES: Atp Dependent Helicase Activity: −1.133
Enriched in untreated DA neurons, NOM p-val 0.340909
  NES: Methyltransferase Activity: −1.089
Enriched in untreated DA neurons, NOM p-val 0.347826
  NES: Auxiliary Transport Protein Activity: −1.141
Enriched in untreated DA neurons, NOM p-val 0.35
  NES: Transcription Factor Activity: −1.022
Enriched in untreated DA neurons, NOM p-val 0.365854
  NES: Rna Helicase Activity: −1.053
Enriched in untreated DA neurons, NOM p-val 0.367347
  NES: Growth Factor Activity: −1.079
Enriched in untreated DA neurons, NOM p-val 0.387097
  NES: Small Gtpase Regulator Activity: −1.038
Enriched in untreated DA neurons, NOM p-val 0.431818
  NES: Phosphotransferase Activity Phosphate Group As Acceptor: −1.058
Enriched in untreated DA neurons, NOM p-val 0.432432
  NES: Protein Tyrosine Phosphatase Activity: −1.019
[6]
  NES: Peptidase Activity: −0.9811
  NES: Tubulin Binding: −0.9894
Enriched in untreated DA neurons, NOM p-val 0.459459
  NES: Cytokine Binding: −0.9644
Enriched in untreated DA neurons, NOM p-val 0.461538
  NES: Gtpase Regulator Activity: −0.9685
Enriched in untreated DA neurons, NOM p-val 0.464286
  NES: Actin Binding: −1.007
Enriched in untreated DA neurons, NOM p-val 0.466667
  NES: Transferase Activity Transferring One Carbon Groups: −0.9965
Enriched in untreated DA neurons, NOM p-val 0.47619
  NES: Receptor Binding: −0.9865
Enriched in untreated DA neurons, NOM p-val 0.48718
  NES: Protein Serine Threonine Phosphatase Activity: −0.9907
Enriched in untreated DA neurons, NOM p-val 0.5
  NES: Polysaccharide Binding: −0.9231
Enriched in untreated DA neurons, NOM p-val 0.52381
  NES: Atp Dependent Rna Helicase Activity: −1.022
Enriched in untreated DA neurons, NOM p-val 0.542857
  NES: Sh3 Sh2 Adaptor Activity: −0.8755
Enriched in untreated DA neurons, NOM p-val 0.567568
  NES: Pattern Binding: −0.9438
Enriched in untreated DA neurons, NOM p-val 0.571429
  NES: Glycosaminoglycan Binding: −0.9097
Enriched in untreated DA neurons, NOM p-val 0.612903
  NES: Phosphoric Monoester Hydrolase Activity: −0.9735
Enriched in untreated DA neurons, NOM p-val 0.634146
  NES: Hydrolase Activity Acting On Carbon Nitrogen But Not Peptide Bonds: −0.8501
Enriched in untreated DA neurons, NOM p-val 0.636364
  NES: Cofactor Binding: −0.8571
Enriched in untreated DA neurons, NOM p-val 0.657143
  NES: Protein Tyrosine Kinase Activity: −0.8381
Enriched in untreated DA neurons, NOM p-val 0.675676
  NES: Oxidoreductase Activity Go 0016705: −0.8606
Enriched in untreated DA neurons, NOM p-val 0.705882
  NES: Growth Factor Binding: −0.8342
Enriched in untreated DA neurons, NOM p-val 0.707317
  NES: Signal Sequence Binding: −0.8186
Enriched in untreated DA neurons, NOM p-val 0.714286
  NES: Cysteine Type Peptidase Activity: −0.844
Enriched in untreated DA neurons, NOM p-val 0.783784
  NES: Dna Dependent Atpase Activity: −0.8332
[7]
  NES: Cysteine Type Endopeptidase Activity: −0.8093
  NES: Oxidoreductase Activity: −0.9148
Enriched in untreated DA neurons, NOM p-val 0.833333
  NES: Organic Acid Transmembrane Transporter Activity: −0.7234
Enriched in untreated DA neurons, NOM p-val 0.852941
  NES: Lipid Binding: −0.7964
Enriched in untreated DA neurons, NOM p-val 0.875
  NES: Ribonuclease Activity: −0.6173
Enriched in untreated DA neurons, NOM p-val 0.885714
  NES: Protein Kinase Regulator Activity: −0.7344
Enriched in untreated DA neurons, NOM p-val 0.891892
  NES: Rna Splicing Factor Activity Transesterification Mechanism: −0.5675
Enriched in untreated DA neurons, NOM p-val 0.904762
  NES: Specific Rna Polymerase Ii Transcription Factor Activity: −0.6412
[8]
  NES: Isomerase Activity: −0.6048
  NES: Transcription Activator Activity: −0.8411
Enriched in untreated DA neurons, NOM p-val 0.911765
  NES: Kinase Regulator Activity: −0.6989
Enriched in untreated DA neurons, NOM p-val 0.914894
  NES: Phospholipid Binding: −0.6869
Enriched in untreated DA neurons, NOM p-val 0.925926
  NES: Atpase Activity Coupled: −0.7071
Enriched in untreated DA neurons, NOM p-val 0.947368
  NES: Carboxylic Acid Transmembrane Transporter Activity: −0.696
Enriched in untreated DA neurons, NOM p-val 0.953488
  NES: Phosphoinositide Binding: −0.5604
[9]
  NES: Amino Acid Transmembrane Transporter Activity: −0.4938
  NES: Serine Hydrolase Activity: −0.6304
Enriched in untreated DA neurons, NOM p-val 0.969697
  NES: Hormone Receptor Binding: −0.4774
Enriched in untreated DA neurons, NOM p-val 0.971429
  NES: Protein Heterodimerization Activity: −0.7909
Enriched in untreated DA neurons, NOM p-val 0.975
  NES: Oxidoreductase Activity Acting On Nadh Or Nadph: −0.4995
Enriched in untreated DA neurons, NOM p-val 0.97561
  NES: Serine Type Peptidase Activity: −0.6529
[10]
  NES: Amine Transmembrane Transporter Activity: −0.4108
  NES: Nucleotidyltransferase Activity: −0.497
  NES: Structural Constituent Of Ribosome: −0.2676
Enriched in untreated DA neurons, NOM p-val […]
  NES: Serine Type Endopeptidase Activity: −0.6588
